Results taken from US20190358206A1, “TOPICAL FORMULATIONS OF BIARYL HETEROCYCLIC COMPOUNDS AND METHODS OF USE THEREOF” (Melinta Subsidiary Corp., priority 2016, published 2019).
Values after ≈ are worked out from the molar mass of the structure shown. Values belong to the compound of their own block, whether it stands above or below them.

Columns and labels:
[1] = test system: Staphylococcus aureus 01A1095, Mac-R; assay: MIC against ribosome-based resistance phenotypes; assay type: cell-based; conditions: read-out: Minimum Inhibitory Concentration (MIC)
S. aureus ATCC 29213 [2] = assay: Agar dilution MIC (CLSI reference method); assay type: cell-based; conditions: Staphylococcus aureus, ATCC29213
S. aureus ATCC 29213 [3] = assay: Broth microdilution MIC (CLSI); assay type: cell-based
[4] = test system: B. thetaiotaomicron ATCC 29741; assay: microbe, parasite or virus in culture; assay type: cell-based; conditions: for MIC: Bacteroides thetaiotaomicron, ATCC29741, read-out: MIC, Broth
[5] = Dynamic vapor sorption/desorption (DVS); assay type: physicochemical
Description: Dynamic vapor sorption/desorption (DVS) data were collected on a VTI SGA-100 Vapor Sorption Analyzer. […] Samples were not dried prior to analysis. Equilibrium criteria used for analysis were less than 0.0100% weight change in 5 minutes, with a maximum equilibration time of 3 hours if the weight criterion was not met. Data were not corrected for the initial moisture content of the samples. Sodium chloride and polyvinylpyrrolidine (PVP) were used as calibration standards.

[6] = Solubility of salts in water by HPLC at 23° C.; assay type: physicochemical; conditions: for Adjusted pH: pH after adjustment to approximately 3.5; for Native pH: supernatant of saturated solution in water
Description: In another set of experiments, solubility of various radezolid salts was determined by HPLC. Approximately 1 mL of saturated solution (with excess of solid in solution) of each salt was prepared in water. The mixture was further mixed overnight on a slurry wheel then centrifuged on a desktop centrifuge at maximum speed for approximately 5 min. The supernatant was collected, and pH was measured. Solubility was determined at the native pH. Then the pH was adjusted to approximately 3.5 with sodium hydroxide solution or an acid solution in which salt was generated. The supernatant was filtered through a 0.2 µm nylon syringe filter and diluted into 0.1% formic acid solution immediately after filtration for HPLC. All HPLC analyses were performed using an Agilent 1100 series liquid chromatograph equipped with a diode array detector, degasser, quaternary pump, and an autosampler. […] The column temperature was set to 30° C., and the detector wavelength was 270 nm with a bandwidth of 8 nm and a reference wavelength of 360 nm. The mobile phase A was 0.1% formic acid in water (HPLC grade), mobile phase B was 0.1% formic acid in methanol (HPLC grade). […] The injection volume was 5 μL.

[7] = Solubility of salts in approved topical solvents; assay type: physicochemical
Description: The solubility of radezolid HCl salt in various approved topical solvents was measured at 19-21° C. by adding a known amount of the radezolid HCl salt to a known amount of the solvent. Increasing amounts of the radezolid HCl salt were added if the solvent was not saturated.
The solubility of radezolid esylate and mesylate salts in various approved topical solvents was measured at 19-21° C. by adding a known amount of the radezolid salts to a known amount of the solvent. Increasing amounts of the radezolid salts were added if the solvent was not saturated.

physchem = assay type: physicochemical; conditions: pH 5.5, aqueous buffer
[8] = Long-term rat safety study (body weight, survival, clinical pathology, exposure)
[9] = in vivo
G. vaginalis ATCC 49145 = assay: Broth microdilution MIC (CLSI); assay type: cell-based; conditions: G. vaginalis 49145
P. granulosum ATCC 25746 [10] = assay: Broth microdilution MIC (CLSI); assay type: cell-based
[11] = Solubility of free base in oily excipients; assay type: physicochemical; conditions: 19-21° C.
Description: The solubility of radezolid free base in various oily excipients was measured at 19-21° C. by adding a known amount of the free base to a known amount of the oily excipients. Increasing amounts of the free base were added if the oily excipient was not saturated.
In some embodiments, facial acne formulations are disclosed herein. In some embodiments, the amount of oil in an emulsion base (cream or lotion) is between 10-15% w/w. In further embodiments, the amount of oil in an emulsion base (cream or lotion) is less than 10%. To obtain a 1% w/w formulation of the free base dissolved in a dispersed oil phase, its solubility in that oil phase needs to be approximately 10% w/w. Radezolid free base was screened in oily excipients at a level of approximately 5% w/w. If an oily excipient could not dissolve at least 5% w/w, it would be unlikely to contribute to higher solubility in other oily excipients (i.e. low potential for synergy).

P. granulosum ATCC 25746 [12] = assay: Agar dilution MIC (CLSI reference method); assay type: cell-based
G. vaginalis ATCC 14018 = assay: Agar dilution MIC (CLSI reference method); assay type: cell-based; conditions: G. vaginalis (isolates of Table 1)
[13] = Granuloma pouch: bacterial burden and radezolid levels in pouch and plasma; assay type: in vivo; conditions: FIGS. 3-4
F. magna ATCC 15794 = assay: Agar dilution MIC (CLSI reference method); assay type: cell-based
[14] = test system: mammalian cells (e.g., defense cells, macrophages, lung cells, and non-phagocytic cells); conditions: cited from earlier work
P. acnes ATCC 11828 = assay: Agar dilution MIC (CLSI reference method); assay type: cell-based; conditions: P. acnes (isolates of Table 1)
ten isolates (ATCC) = assay type: cell-based; conditions: for all organisms
[15] = Solubility of salts in water, visual/microscopic
Description: Approximately 2-3.5 mg of each salt was weighed into a glass vessel at ambient temperature. HPLC grade water, 200 μL, was added to each and stirred with a stir bar for two hours. Samples were inspected for solubility both visually and/or microscopically using a Carl Zeiss SV8 stereomicroscope.

Compound: CC[C@H]1OC(=O)[C@H](C)[C@@H](O[C@H]2C[C@@](C)(OC)[C@@H](O)[C@H](C)O2)[C@H](C)[C@@H](O[C@@H]2O[C@H](C)C[C@H](N(C)C)[C@H]2O)[C@](C)(O)C[C@@H](C)CN(C)[C@H](C)[C@@H](O)[C@]1(C)O [Azithromycin, azithromycin]
MIC [1]: 128 µg/mL (≈ 171 µM)

MIC (S. aureus ATCC 29213 [2]): 0.25 µg/mL (≈ 0.588 µM) | MIC lower than radezolid (S. aureus ATCC 29213 [3]): 8 fold
Compound: CCC[C@@H]1C[C@@H](C(=O)N[C@@H]([C@H]2O[C@H](SC)[C@H](O)[C@@H](O)[C@H]2O)[C@H](C)Cl)N(C)C1 [Clindamycin, clindamycin]

Compound: C[C@H]1c2cccc(O)c2C(=O)C2=C(O)[C@]3(O)C(=O)C(C(N)=O)=C(O)[C@@H](N(C)C)[C@@H]3[C@@H](O)[C@@H]21 [DOX, doxycycline]
MIC more potent than radezolid ([4]; B. thetaiotaomicron): 4 fold | MIC [4]: 2 µg/mL (≈ 4.5 µM) | MIC lower than radezolid (S. aureus ATCC 29213 [3]): 4 fold

Compound: CC[C@H]1OC(=O)[C@H](C)[C@@H](O[C@H]2C[C@@](C)(OC)[C@@H](O)[C@H](C)O2)[C@H](C)[C@@H](O[C@@H]2O[C@H](C)C[C@H](N(C)C)[C@H]2O)[C@](C)(O)C[C@@H](C)C(=O)[C@H](C)[C@@H](O)[C@]1(C)O [ERY, erythromycin]
MIC [4]: 16 µg/mL (≈ 21.8 µM)

DVS Desorption: weight loss from 95 to 5% RH [5]: Desorption: 2.388% weight loss | DVS Sorption: weight loss upon equilibration at 5% RH [5]: Sorption: 0.017% weight loss | Adjusted pH [6]: 3.6 | Native pH [6]: 2.0 | Solubility at Native pH ([6]; water, 23° C., HPLC): >133.2 mg/mL | Solubility at Adjusted pH ([6]; water, 23° C., HPLC, pH adjusted to approximately 3.5): >116.9 mg/mL
Compound: O=S(=O)(O)CCS(=O)(=O)O [Ethane-1,2-disulfonate]

DVS Desorption: weight loss from 95 to 5% RH [5]: Desorption: 0.069% weight loss | DVS Sorption: weight gain from 5 to 95% RH [5]: 0.064% weight gain from 5 to | DVS Sorption: weight gain upon equilibration at 5% RH [5]: Sorption: 0.03% weight gain | Solubility ([7]; 50% Ethanol/50% phosphate buffer (pH = 7.4), 19-21° C.): <0.2 % w/w | Solubility ([7]; 50% Ethanol/50% water, 19-21° C.): <0.6 % w/w | Solubility ([7]; Diethylene glycol monoethyl ether (Transcutol), 19-21° C.): <0.2 % w/w | Solubility ([7]; Ethanol, 19-21° C.): <0.2 % w/w | Solubility ([7]; Glycerin, 19-21° C.): <0.2 % w/w | Solubility ([7]; Hexylene glycol, 19-21° C.): <0.2 % w/w | Solubility ([7]; PEG 300, 19-21° C.): <0.2 % w/w | Solubility ([7]; Phosphate buffer (pH = 7.4), 19-21° C.): <0.2 % w/w | Solubility ([7]; Propylene glycol, 19-21° C.): <0.2 % w/w | Solubility ([6]; pH 4.6, thermodynamic from solid, water, 23° C., HPLC, read-out: Solubility at Native pH): 1700 µg/mL | Adjusted pH [6]: 3.5 | Native pH [6]: 4.6 | Solubility (physchem): > 100 µg/mL
Compound: CC(=O)NC[C@H]1CN(c2ccc(-c3ccc(CNCc4c[nH]nn4)cc3)c(F)c2)C(=O)O1.Cl [Hydrochloride, (5S)—N-[3-(2-Fluoro-4′-{[(1H-[1,2,3]triazol-4-ylmethyl)-amino]-methyl}-biphenyl-4-yl)-2-oxo-oxazolidin-5-ylmethyl]-acetamide Chloride]

Compound: CC(=O)NC[C@H]1CN(c2ccc(N3CCOCC3)c(F)c2)C(=O)O1 [Linezolid, linezolid, reference compound]
MIC (S. aureus ATCC 29213 [2]): 2 µg/mL (≈ 5.93 µM) | hematology at unscheduled euthanization ([8]; rat, 100 mg/kg/day, day 75): decreased red cell mass, absolute reticulocyte and neutrophil counts | bone marrow cellularity ([9]; rat, 100 mg/kg/day): decreased cellularity of sternal and femoral bone marrow

Compound: Cc1ncc([N+](=O)[O-])n1CCO [MET, metronidazole]
MIC [4]: 4 µg/mL (≈ 23.4 µM)

Compound: CC(=O)NC[C@H]1CN(c2ccc(-c3ccc(CNCc4cnn[nH]4)cc3)c(F)c2)C(=O)O1 [Radezolid, N-[3-(2-Fluoro-4′-{[(1H-[1,2,3]triazol-4-ylmethyl)-amino]-methyl}-biphenyl-4-yl)-2-oxo-oxazolidin-5-(S)-ylmethyl]-acetamide]
Broth microdilution: more active than linezolid (G. vaginalis ATCC 49145): 8 fold | MIC (S. aureus ATCC 29213 [2]): 1 µg/mL (≈ 2.28 µM) | Broth microdilution: more active than linezolid (P. granulosum ATCC 25746 [10]): 8 fold | Solubility ([11]; Benzyl benzoate (BB)): <1.5 % w/w | Solubility ([11]; Cyclomethicone): <0.75 % w/w | Solubility ([11]; Diisopropyl adipate (DIA)): <1.5 % w/w | Solubility ([11]; Mineral oil): <1 % w/w | Solubility ([11]; Oleic acid): <0.75 % w/w | Agar dilution MIC more potent than linezolid (P. granulosum ATCC 25746 [12]): 8 fold | Safety margin (Rat NOAEL AUC/Human efficacious AUC) ([8]; rat 200 mg/kg Day 29 vs human 300 mg): 30.8x | Agar dilution MIC more potent than linezolid (G. vaginalis ATCC 14018): 8 fold | radezolid levels in granuloma pouch versus plasma over time [13]: remain high in granuloma pouch even as they decline in the plasma | Agar dilution MIC more potent than linezolid (F. magna ATCC 15794): 4 fold | accumulation in mammalian cells, greater extent than linezolid [14]: 17 fold | share accumulating in the cytosol of cells [14]: Approximately 60% | share accumulating in the lysosome [14]: approximately 40% | Agar dilution MIC more potent than linezolid (P. acnes ATCC 11828): 4 fold | survival ([9]; both, rat): 100% | safety in long-term rat studies, overall [9]: good safety | changes in hematology, coagulation, clinical chemistry, or urinalysis ([9]; rat): No test article-related changes were observed | agar dilution MICs, range over organisms (ten isolates (ATCC)): 0.06 to 1 µg/mL

Compound: O=C(O)c1ccccc1O [Salicylate]
Solubility [15]: <30 µg/mL

Compound: CN(C)[C@@H]1C(O)=C(C(N)=O)C(=O)[C@@]2(O)C(O)=C3C(=O)c4c(O)cccc4[C@@](C)(O)[C@H]3C[C@@H]12 [TET, tetracycline]
MIC [4]: 8 µg/mL (≈ 18 µM)

Solubility ([15]; HPLC grade water, ambient temperature): 2600 µg/mL
Compound: Fumarate

Solubility [15]: 1100 µg/mL
Compound: Phosphate
